This assay has as its target T1, human PF4 (Homo sapiens, UniProt P02776).
T1 construct: PF4 is a 70 amino acid, lysine-rich 7.8 kDa platelet-specific protein; made in house; host or cells: Escherichia coli BL21DE3 pLysS (pT7-7) and/or Drosophila S2 cells
T1 sequence (P02776 32-101): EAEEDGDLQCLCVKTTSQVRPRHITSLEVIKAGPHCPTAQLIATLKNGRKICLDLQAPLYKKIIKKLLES
The assay can be described thus: Inhibition of PF4 tetramer formation (BS3 cross-linking, SDS-PAGE). The assay is classed as biochemical. The following applies: for inhibition at 1 µM: 1 μM inhibitor; for inhibition at 1 µM / inhibition at 3 µM / inhibition at 5 µM / inhibition at 10 µM: read-out: % inhibition of PF4 tetramer formation at single concentration of inhibitor; for inhibition at 3 µM: 3 μM inhibitor (column A); for pIC50: read-out: IC50 of PF4 tetramer formation inhibition; for inhibition at 5 µM: 5 μM inhibitor; for inhibition at 10 µM: 10 μM inhibitor (column A). The procedure: Compounds of Examples 1-38, 65-301, 303, 305, 307, 309, 311, 313, 314, 316, and 318-404 were tested using SDS PAGE analysis of BS3 crosslinked PF4 for their ability to prevent PF4 tetramer formation. […] See, Suvarna et al., Throm. Res, 122:211-220 (2008), which is hereby incorporated by reference, at least for a detailed description of this technique.
cDNA encoding human PF4 was cloned into the plasmid μMT/BiPN5-His A (Invitrogen Corp., Carlsbad CA) for expression in the Drosophila Expression System (Invitrogen, Carlsbad, CA). Cloning was performed using Bg1 II and Age I cloning sites. A hexanucleotide encoding Bg1 II site was then eliminated by site-directed mutagenesis so that the expressed protein contained full-length wild type (wt) PF4 or PF4^K50E with an identical sequence as their counterparts expressed in E. coli. See, method described in Sachais et al (Sachais, B. S. et al. (2012). Blood 119(25): 5955-5961). PF4 expression was induced by adding copper sulfate (0.5 mM). The induced S2 cells were incubated in serumfree Insect-Xpress™ media (Lonza, Walkersville, MD) for 3-5 days; supernatants were collected, sodium azide (0.02% final concentration) and EDTA (2.5 mM final concentration) were added, and the media were filtered through an Express® PLUS 0.22 μm filter (Millipore Corp., Billerica, MA).
Wild-type (WT) human PF4 in the pT7-7 vector (Novagen, Madison, WI) was expressed in the Escherichia coli strain BL21DE30 pLysS (Stratagene, La Jolla, CA), and purified and characterized as described by Rauova et al. (Rauova, L. et al. (2006). Blood 107(6): 2346-2353) and Park et al., (Blood, 75:1290-1295 (1990)), which are hereby incorporated by reference. Briefly, recombinant protein was isolated from the supernatant of the bacterial lysate by affinity chromatography using a HiTrap high-performance (HP) affinity column. WT PF4 was purified from the media on a heparin HiTrap® column on an ÄTKAPrime™ system (GE Healthcare) at 4° C. in Tris (10 mM), EDTA (1 mM), and pH 8 buffer. Media was loaded in buffer containing NaCl (0.5 M) and PF4 was eluted at 1.8 M NaCl using a linear gradient. Fractions containing purified PF4 as detected by silver staining of 12% NuPAGE Bis-Tris gels (Invitrogen) were pooled, concentrated and buffer exchanged into 50 mM HEPES, 0.5 M NaCl, pH—7.2 using an Amicon® Ultra centrifugal filter (3K NMWL, Millipore Corp). Protein was quantified using a BCA assay.
Compounds of Examples 1-38, 65-196, and 209-228 were then tested for their ability to inhibit PF4 tetramer formation using a cross-linking assay as described in Rauova cited above. Specifically, hPF4 (10 μg/ml) in phosphate-buffered saline (PBS) was incubated at 37° C. for 15 min in the absence of the antagonistic compounds (control sample) and presence of compounds. Cross-linking and SDS-PAGE analysis were then performed as described in “Analysis of PF4 multimerization” of Rauova. The relative amounts of PF4 in each of the monomer, dimer, trimer and tetramer form were calculated by analyzing the samples on a 12% SDS-polyacrylamide gel under reducing conditions. Bands were quantified using the Kodak ID Image Analysis system (Kodak, Rochester, NY). The SigmaMarker™ reagent served as the molecular weight standard. Data was compiled and bar graphed as % PF4 for the tetramer, trimer, dimer, and monomer as a function of concentration for the test and control samples.
This experiment was performed in a manner similar to experiment 1, but PF4 (10 μg/ml) in PBS was independently incubated with compounds of Examples 1-38, 65-196, and 209-228 for 60 min at room temperature, followed by the addition of cross-linking reagent bis(sulfosuccinimidyl)suberate (0.2 mM) for 30 min at room temperature. The reaction was stopped by adding NuPAGE® lithium dodecyl sulfate (LDS) sample buffer, and denatured by heating to 70° C. for 10 min according to the manufacturer's instructions. […]

pIC50: −log10 of the molar value.

The term pIC50 denotes −log10 of the IC50, conventionally taken in molar units. With `O=C(NC1CCC1)C1C(=O)c2ccc(S(=O)(=O)c3ccc4c(c3)C(=O)C(C(=O)NC3CCC3)C4=O)cc2C1=O` (stereo not drawn) [Example 292, N-cyclobutyl-5-{[2-(cyclobutylcarbamoyl)-1,3-dioxo-2,3-dihydro-1H-inden-5-yl]sulfonyl}-1,3-dioxo-2,3-dihydro-1H-indene-2-carboxamide], the inhibition at 1 µM stood at 47%, the inhibition at 3 µM came to 100% and the negative-log IC50 (pIC50) was 5.90.

For the compound `COCC(=O)C1C(=O)c2ccc(S(=O)(=O)c3ccc4c(c3)C(=O)C(C(=O)COC)C4=O)cc2C1=O` (stereo not drawn) [Example 377, 2-(2-methoxyacetyl)-5-{[2-(2-methoxyacetyl)-1,3-dioxo-2,3-dihydro-1H-inden-5-yl]sulfonyl}-2,3-dihydro-1H-indene-1,3-dione], the inhibition at 1 µM stood at 26% and the inhibition at 3 µM came out at 41%.

With `O=C1c2ccc(S(=O)(=O)c3ccc4c(c3)C(=O)C(C(=O)C3CCN(C(=O)OCc5ccccc5)C3)C4=O)cc2C(=O)C1C(=O)C1CCN(C(=O)OCc2ccccc2)C1` (stereo not drawn) [Example 160, benzyl 3-{5-[(2-{1-[(benzyloxy)carbonyl]pyrrolidine-3-carbonyl}-1,3-dioxo-2,3-dihydro-1H-inden-5-yl)sulfonyl]-1,3-dioxo-2,3-dihydro-1H-indene-2-carbonyl}pyrrolidine-1-carboxylate], the inhibition at 5 µM turned out to be 75%, the inhibition at 10 µM was 88% and the pIC50 is 5.29.

Take `COC(=O)[C@H]1CCCCC1C(=O)C1C(=O)c2ccc(C(=O)c3ccc4c(c3)C(=O)C(C(=O)C3CCCC[C@@H]3C(=O)OC)C4=O)cc2C1=O` (stereo in doubt) [Example 256, methyl (1S)-2-(5-{2-[(2S)-2-(methoxycarbonyl)cyclohexanecarbonyl]-1,3-dioxo-2,3-dihydro-1H-indene-5-carbonyl}-1,3-dioxo-2,3-dihydro-1H-indene-2-carbonyl)cyclohexane-1-carboxylate]: the inhibition at 1 µM was 13% and the inhibition at 3 µM turned out to be 32%.

Turning to `COCCOCC(=O)C1C(=O)c2ccc(Oc3ccc4c(c3)C(=O)C(C(=O)COCCOC)C4=O)cc2C1=O` (stereo not drawn) [Example 396, 2-[2-(2-methoxyethoxy)acetyl]-5-({2-[2-(2-methoxyethoxy)acetyl]-1,3-dioxo-2,3-dihydro-1H-inden-5-yl}oxy)-2,3-dihydro-1H-indene-1,3-dione], the inhibition at 1 µM is 14% and the inhibition at 3 µM is 17%.

With `O=C(NC1CCCC1)C1C(=O)c2ccc(Oc3ccc4c(c3)C(=O)C(C(=O)NC3CCCC3)C4=O)cc2C1=O` (stereo not drawn) [Example 107, N-cyclopentyl-5-{[2-(cyclopentylcarbamoyl)-1,3-dioxo-2,3-dihydro-1H-inden-5-yl]oxy}-1,3-dioxo-2,3-dihydro-1H-indene-2-carboxamide], the pIC50 is 5.54.

With `CC[C@H](C)[C@H](NC(=O)OC(C)(C)C)C(=O)C1C(=O)c2ccc(S(=O)(=O)c3ccc4c(c3)C(=O)C(C(=O)[C@@H](NC(=O)OC(C)(C)C)[C@@H](C)CC)C4=O)cc2C1=O` (stereo partly drawn) [Example 279, tert-butyl N-[(2S,3S)-1-[5-({2-[(2S,3S)-2-{[(tert-butoxy)carbonyl]amino}-3-methylpentanoyl]-1,3-dioxo-2,3-dihydro-1H-inden-5-yl}sulfonyl)-1,3-dioxo-2,3-dihydro-1H-inden-2-yl]-3-methyl-1-oxopentan-2-yl]carbamate], the inhibition at 1 µM was determined as 33%, the inhibition at 3 µM was found to be 15% and the pIC50 is 5.52.

As for `C/C(O)=C1\C(=O)c2ccc(C#Cc3ccc4c(c3)C(=O)/C(=C(/C)O)C4=O)cc2C1=O` [Example 196], the inhibition at 5 µM was 88%, the inhibition at 10 µM came to 96% and the pIC50 is 5.28.

With `O=C(NCCc1cccc(Cl)c1)C1C(=O)c2ccc(S(=O)(=O)c3ccc4c(c3)C(=O)C(C(=O)NCCc3cccc(Cl)c3)C4=O)cc2C1=O` (stereo not drawn) [Example 84, N-[2-(3-chlorophenyl)ethyl]-5-[(2-{[2-(3-chlorophenyl)ethyl]carbamoyl}-1,3-dioxo-2,3-dihydro-1H-inden-5-yl)sulfonyl]-1,3-dioxo-2,3-dihydro-1H-indene-2-carboxamide], the pIC50 was 5.52.

`CCCC(=O)C1C(=O)c2ccc(Oc3ccc4c(c3)C(=O)C(C(=O)CCC)C4=O)cc2C1=O` (stereo not drawn) [Example 321, 2-butanoyl-5-[(2-butanoyl-1,3-dioxo-2,3-dihydro-1H-inden-5-yl)oxy]-2,3-dihydro-1H-indene-1,3-dione]: the inhibition at 1 µM is 17% and the inhibition at 3 µM was determined as 23%.

In the case of `C[C@@H]1CC[C@@H](C(=O)C2C(=O)c3ccc(-c4ccc5c(c4)C(=O)C(C(=O)[C@@H]4CC[C@@H](C)N4C(=O)OC(C)(C)C)C5=O)cc3C2=O)N1C(=O)OC(C)(C)C` (stereo partly drawn) [Example 214, tert-butyl (2S,5R)-2-{2′-[(2S,5R)-1-[(tert-butoxy)carbonyl]-5-methylpyrrolidine-2-carbonyl]-1,1′,3,3′-tetraoxo-1H,1′H,2H,2′H,3H,3′H-[5,5′-biindene]-2-carbonyl}-5-methylpyrrolidine-1-carboxylate], the pIC50 is 5.40.

With `Cc1ccccc1C(=O)CCC(=O)C1C(=O)c2ccc(Oc3ccc4c(c3)C(=O)C(C(=O)CCC(=O)c3ccccc3C)C4=O)cc2C1=O` (stereo not drawn) [Example 259, 2-[4-(2-methylphenyl)-4-oxobutanoyl]-5-({2-[4-(2-methylphenyl)-4-oxobutanoyl]-1,3-dioxo-2,3-dihydro-1H-inden-5-yl}oxy)-2,3-dihydro-1H-indene-1,3-dione], the inhibition at 1 µM is 18% and the inhibition at 3 µM stood at 55%.

For `COC(=O)c1ccc(NC(=O)C2C(=O)c3ccc(S(=O)(=O)c4ccc5c(c4)C(=O)C(C(=O)Nc4ccc(C(=O)OC)cc4)C5=O)cc3C2=O)cc1` (stereo not drawn) [Example 98, methyl 4-{5-[(2-{[4-(methoxycarbonyl)phenyl]carbamoyl}-1,3-dioxo-2,3-dihydro-1H-inden-5-yl)sulfonyl]-1,3-dioxo-2,3-dihydro-1H-indene-2-amido}benzoate], the inhibition at 5 µM was found to be 100% and the inhibition at 10 µM came to 100%.

`O=C(O)CCC(=O)C1C(=O)c2ccc(Oc3ccc4c(c3)C(=O)C(C(=O)CCC(=O)O)C4=O)cc2C1=O` (stereo not drawn) [Example 245, 4-(5-{[2-(3-carboxypropanoyl)-1,3-dioxo-2,3-dihydro-1H-inden-5-yl]oxy}-1,3-dioxo-2,3-dihydro-1H-inden-2-yl)-4-oxobutanoic acid]: the inhibition at 1 µM is 27% and the inhibition at 3 µM came out at 47%.

Turning to `Cc1ccccc1NC(=O)C1C(=O)c2ccc(S(=O)(=O)c3ccc4c(c3)C(=O)C(C(=O)Nc3ccccc3C)C4=O)cc2C1=O` (stereo not drawn) [Example 85, N-(2-methylphenyl)-5-({2-[(2-methylphenyl)carbamoyl]-1,3-dioxo-2,3-dihydro-1H-inden-5-yl}sulfonyl)-1,3-dioxo-2,3-dihydro-1H-indene-2-carboxamide], the pIC50 is 5.60.

For the origin of these results see patent publication US20250281424A1 (New York Blood Center, Inc, priority 2020, published 2025).
